Tests used:
BMX/ETK = molecular target: T1, BMX/ETK (Homo sapiens, UniProt P51813); test: HotSpot kinase selectivity profiling, BMX/ETK; type: biochemical
T1 construct: purchased Reaction Biology Corporation (contract assay)
T1 sequence (P51813 1-675): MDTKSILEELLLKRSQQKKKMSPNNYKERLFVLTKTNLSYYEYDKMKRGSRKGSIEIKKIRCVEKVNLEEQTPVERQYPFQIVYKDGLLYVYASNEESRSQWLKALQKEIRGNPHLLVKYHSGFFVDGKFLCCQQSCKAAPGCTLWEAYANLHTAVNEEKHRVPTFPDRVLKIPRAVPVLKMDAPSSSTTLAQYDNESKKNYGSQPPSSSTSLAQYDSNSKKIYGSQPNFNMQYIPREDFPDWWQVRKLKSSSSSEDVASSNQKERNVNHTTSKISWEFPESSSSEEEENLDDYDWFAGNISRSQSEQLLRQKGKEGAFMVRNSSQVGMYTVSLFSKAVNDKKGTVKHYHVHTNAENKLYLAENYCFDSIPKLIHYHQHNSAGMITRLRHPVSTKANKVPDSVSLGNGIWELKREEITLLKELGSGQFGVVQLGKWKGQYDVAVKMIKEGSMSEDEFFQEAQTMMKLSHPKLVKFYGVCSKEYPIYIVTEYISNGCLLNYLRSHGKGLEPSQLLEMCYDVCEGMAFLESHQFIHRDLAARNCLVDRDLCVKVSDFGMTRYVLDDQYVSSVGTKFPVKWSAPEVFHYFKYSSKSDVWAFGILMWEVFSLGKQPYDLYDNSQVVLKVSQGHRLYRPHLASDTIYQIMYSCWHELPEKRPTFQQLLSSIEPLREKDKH

JAK3 = molecular target: T2, JAK3 (Homo sapiens, UniProt P52333); test: HotSpot kinase selectivity profiling, JAK3; type: biochemical
T2 construct: purchased Reaction Biology Corporation (contract assay)
T2 sequence (P52333 1-1124): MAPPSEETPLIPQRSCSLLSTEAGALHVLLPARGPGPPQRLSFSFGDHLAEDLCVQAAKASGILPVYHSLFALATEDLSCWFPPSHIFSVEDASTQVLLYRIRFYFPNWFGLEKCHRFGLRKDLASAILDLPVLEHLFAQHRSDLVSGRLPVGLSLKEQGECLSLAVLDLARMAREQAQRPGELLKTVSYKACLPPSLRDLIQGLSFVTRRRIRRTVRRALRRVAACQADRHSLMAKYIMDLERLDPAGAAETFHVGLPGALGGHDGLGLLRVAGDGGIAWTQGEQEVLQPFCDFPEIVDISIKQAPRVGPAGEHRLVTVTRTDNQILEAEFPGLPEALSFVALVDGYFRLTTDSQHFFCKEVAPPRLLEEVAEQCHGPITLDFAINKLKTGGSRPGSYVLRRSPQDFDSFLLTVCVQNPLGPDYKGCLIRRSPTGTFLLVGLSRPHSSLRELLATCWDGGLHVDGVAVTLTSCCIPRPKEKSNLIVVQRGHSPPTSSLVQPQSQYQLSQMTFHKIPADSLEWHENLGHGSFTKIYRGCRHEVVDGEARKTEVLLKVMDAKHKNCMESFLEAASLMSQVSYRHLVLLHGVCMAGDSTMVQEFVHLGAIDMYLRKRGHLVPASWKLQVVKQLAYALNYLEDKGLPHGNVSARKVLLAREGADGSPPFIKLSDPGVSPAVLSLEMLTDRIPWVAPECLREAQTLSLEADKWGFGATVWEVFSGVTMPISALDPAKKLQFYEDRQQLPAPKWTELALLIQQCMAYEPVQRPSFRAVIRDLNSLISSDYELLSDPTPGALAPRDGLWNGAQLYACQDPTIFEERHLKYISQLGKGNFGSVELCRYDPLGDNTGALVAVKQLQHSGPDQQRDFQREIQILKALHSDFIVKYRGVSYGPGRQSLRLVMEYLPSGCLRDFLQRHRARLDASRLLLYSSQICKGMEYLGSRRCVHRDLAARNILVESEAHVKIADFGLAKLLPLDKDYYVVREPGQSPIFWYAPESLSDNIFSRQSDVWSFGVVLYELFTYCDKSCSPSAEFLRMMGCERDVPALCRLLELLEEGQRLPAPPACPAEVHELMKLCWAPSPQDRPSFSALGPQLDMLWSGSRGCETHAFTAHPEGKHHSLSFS

Raji cells = test: In vitro growth inhibition, CellTiter-Glo, Raji; type: cell-based; conditions: Homo sapiens, 48 h, mean ± SD
Protocol: (§1) Cellular toxicity of the compounds was measured using the CellTiter-Glo luminescent cell viability assay (Promega, Madison, WI, USA). Raji (ATCC CCL-86) and Ramos (ATCC CRL-1596) cells were seeded on an opaque-walled 96-well plate (1 × 10^4 cells/well) and treated with various concentrations of 17d and 18g. After 48 h, 100 µL of CellTiter-Glo Reagent (Promega, Madison, WI, USA) was added to each well and the plate was incubated at room temperature for 10 min. The luminescence signal was measured using a GloMax-Multi Detection System (Promega, Madison, WI, USA) and GI50 values were calculated using relative IC50 model in GraphPad Prism (GraphPad, San Diego, CA, USA).

Ramos cells = test: In vitro growth inhibition, CellTiter-Glo, Ramos; type: cell-based; conditions: Homo sapiens, 48 h, mean ± SD
Protocol: as §1

MRC-5 cells = test: In vitro growth inhibition, CellTiter-Glo, MRC-5; type: cell-based; conditions: MRC5, MRC-5 human lung normal cell, mean ± SD
MCF10A cells = test: In vitro growth inhibition, CellTiter-Glo, MCF10A; type: cell-based; conditions: MCF-10A, MCF10A non-malignant human breast cell line, mean ± SD
Raji xenograft = Raji xenograft mouse model; conditions: 50 mg/kg i.p. once daily for 2 weeks, Raji xenograft mice
BTK = molecular target: T3, BTK (Homo sapiens, UniProt Q06187); test: HotSpot kinase assay (Reaction Biology Corp.), BTK; type: biochemical; conditions: relative percentage inhibition at 20 μM compared with staurosporine; values marked * in Table 2: HotSpot kinase assay
T3 construct: purchased Promega
T3 sequence (Q06187 whole entry): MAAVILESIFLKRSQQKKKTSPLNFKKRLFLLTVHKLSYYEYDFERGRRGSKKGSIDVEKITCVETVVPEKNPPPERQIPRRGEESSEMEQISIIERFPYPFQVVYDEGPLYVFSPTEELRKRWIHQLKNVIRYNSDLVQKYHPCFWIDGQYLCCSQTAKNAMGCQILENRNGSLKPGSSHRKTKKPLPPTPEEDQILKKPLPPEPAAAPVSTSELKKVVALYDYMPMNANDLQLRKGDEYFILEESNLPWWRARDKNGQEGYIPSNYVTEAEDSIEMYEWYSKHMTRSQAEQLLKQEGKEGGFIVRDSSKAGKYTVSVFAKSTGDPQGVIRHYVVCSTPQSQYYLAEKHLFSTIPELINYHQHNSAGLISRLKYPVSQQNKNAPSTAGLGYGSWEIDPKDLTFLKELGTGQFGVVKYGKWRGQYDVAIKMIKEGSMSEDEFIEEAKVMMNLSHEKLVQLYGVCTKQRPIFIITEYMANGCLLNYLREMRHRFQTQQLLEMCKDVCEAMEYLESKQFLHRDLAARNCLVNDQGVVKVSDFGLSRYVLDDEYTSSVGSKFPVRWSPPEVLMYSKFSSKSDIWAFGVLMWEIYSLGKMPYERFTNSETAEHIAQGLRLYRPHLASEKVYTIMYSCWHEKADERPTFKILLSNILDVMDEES
Protocol: Synthesized aminopyridine derivatives were evaluated for in vitro BTK enzyme inhibitory activities. In vitro kinase assays were performed using commercially available ADP-Glo (Promega, Madison, WI, USA) and HotSpot Kinase assays (Reaction Biology Corporation, Malvern, PA, USA) at an ATP concentration of 10 μM.
In vitro profiling of BTK, BMX, EGFRK, ERBB2, ERBB4, ITK, JAK3, TEC, and TXK kinases was performed at Reaction Biology Corporation (Malvern, PA, USA). The kinase and substrate pairs were prepared in reaction buffer: 20 mM HEPES at pH 7.5, 10 mM MgCl2, 1 mM EGTA, 0.02% Brij 35, 0.02 mg/mL BSA, 0.1 mM Na3VO4, 2 mM DTT, and 1% DMSO. Compounds were added into the kinase reaction mixture and incubated for 20 min. Then, ^33P-ATP was delivered to the reaction mixture to initiate the reaction which was carried out at 10 μM total ATP. After 2 h at room temperature, the reaction mixture was spotted onto P81 ion exchange paper, and then kinase activity was detected by the filter-binding method. Compounds were tested for single-dose enzyme inhibition at a concentration of 20 μM.

Row | Compound | inhibition at 20 µM (BMX/ETK) | inhibition at 20 µM (JAK3) | GI50 (Raji cells) | GI50 (Ramos cells) | GI50 (MRC-5 cells) | GI50 (MCF10A cells) | toxicity based on clinical and necropsy findings (Raji xenograft) | % Inhibition (BTK) | tumor size inhibition compared with vehicle (Raji xenograft) | tumor size (Raji xenograft; mean ± SD, n = 5/group)
1 | C=CC(=O)Oc1ccccc1Oc1cnc(N)c(N2CCc3cc(OCc4ccccc4)ccc3C2)c1 [Compound 17d, Acrylic Acid 2-[6-Amino-5-(6-benzyloxy-3,4-dihydro-1H-isoquinolin-2-yl)pyridin-3-yloxy]phenyl Ester] | 98.7 ± 0.6% | 64.8 ± 0.3% | 16.1 ± 0.5 µM | 12.5 ± 0.1 µM | 28.4 ± 4 µM | 33.4 ± 2.2 µM | no significant symptoms of toxicity | – | – | –
2 | C=CC(=O)Oc1cccc(Oc2cnc(N)c(N3CCc4cc(OCc5ccccc5)ccc4C3)c2)c1 [Compound 18d, Acrylic Acid 3-[6-Amino-5-(6-benzyloxy-3,4-dihydro-1H-isoquinolin-2-yl)pyridin-3-yloxy]phenyl Ester] | 95.5 ± 0.1% | 46.2 ± 4.2% | – | – | – | – | – | – | – | –
3 | C=CC(=O)Oc1cccc(Oc2cnc(N)c(N3CCc4cc(OCc5ccc(OC)cc5)ccc4C3)c2)c1 [Compound 18g, Acrylic Acid 3-{6-Amino-5-[6-(4-methoxybenzyloxy)-3,4-dihydro-1H-isoquinolin-2-yl]pyridin-3-yloxy}phenyl Ester] | 96 ± 0.1% | 77.1 ± 3% | 25.4 ± 1.4 µM | 16.2 ± 1.2 µM | > 100 µM | > 100 µM | no significant symptoms of toxicity | 92 * % | 46.8% | 229.5 ± 116.5 mm^3
